Results taken from US20070037785A1, “Novel dipeptidyl peptidase IV inhibitors used for functionally influencing different cells and treating immunological, infammatory, neuronal, and other diseases” (priority 2003, published 2007).

What follows are compounds tested on Dextran Sulfate-induced Colitis of Mice (assay: Dextran sulfate-induced colitis of mice, disease score). Conditions: 10 pg single inhibitor i.p. on three successive days from day 5; day 7; slight, but insignificant.
Type: in vivo, Balb/c mice

Row | Structure (SMILES) | reduction of the heaviness of the disease (score) [%]
1 | CCCCC[C@H](CC(=O)NO)C(=O)N[C@H](C(=O)N1CCC[C@H]1CO)C(C)C [Actinonine] | −16.5

The compounds below were run against dipeptidyl peptidase IV (Homo sapiens, UniProt P27487) (assay: biochemical). Conditions: values marked with "*" are ID50 values; read-out: IC50DPIV, values marked with "*" = ID50.
Sequence of dipeptidyl peptidase IV (P27487 whole entry, species assumed): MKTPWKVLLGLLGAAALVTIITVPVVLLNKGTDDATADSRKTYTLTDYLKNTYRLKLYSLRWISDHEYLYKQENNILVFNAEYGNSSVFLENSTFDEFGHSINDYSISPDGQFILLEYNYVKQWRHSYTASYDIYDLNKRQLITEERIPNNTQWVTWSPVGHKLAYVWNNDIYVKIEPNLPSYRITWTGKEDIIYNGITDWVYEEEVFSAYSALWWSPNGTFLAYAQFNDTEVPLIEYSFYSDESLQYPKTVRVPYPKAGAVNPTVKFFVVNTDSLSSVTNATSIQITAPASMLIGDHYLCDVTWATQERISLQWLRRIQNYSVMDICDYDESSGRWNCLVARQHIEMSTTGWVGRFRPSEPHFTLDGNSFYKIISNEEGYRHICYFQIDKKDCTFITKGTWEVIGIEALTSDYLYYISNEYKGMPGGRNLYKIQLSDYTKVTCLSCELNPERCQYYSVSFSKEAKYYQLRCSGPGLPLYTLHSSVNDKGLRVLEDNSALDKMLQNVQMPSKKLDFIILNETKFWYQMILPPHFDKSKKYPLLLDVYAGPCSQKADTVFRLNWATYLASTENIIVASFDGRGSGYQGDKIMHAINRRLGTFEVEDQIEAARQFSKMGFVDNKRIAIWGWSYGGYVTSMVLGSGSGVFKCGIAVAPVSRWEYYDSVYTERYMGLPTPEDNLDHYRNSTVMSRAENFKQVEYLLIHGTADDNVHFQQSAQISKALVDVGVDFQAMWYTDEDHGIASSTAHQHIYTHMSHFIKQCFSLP

Row | Structure (SMILES) | IC50 [µM]
2 | N/C(=N/[N+](=O)[O-])N/N=C/c1ccc(-c2cccc(Cl)c2Cl)o1 [D10.142] | 609
3 | O=C(N/N=C/c1cccc(OC(=O)c2ccccc2Cl)c1)/C(=C\c1ccc2c(c1)OCO2)NC(=O)c1ccccc1 [D10.143] | 656
4 | Cc1ccccc1NC(=O)C(=O)N/N=C/c1cccc(Cl)c1 [D10.144] | 775
5 | O=C(Nc1cccc(/N=C/c2cc(/N=N\c3ccccc3Cl)ccc2O)c1)c1ccco1 [D11.001] | 2.5
6 | Cn1c(=O)c2c(nc(NCC(O)CO)n2Cc2ccccc2Cl)n(C)c1=O (stereo not shown) [D12.040] | 83.3
7 | COC(=O)c1cccc(NC(=O)/C(=C\c2ccc3c(c2)OCO3)NC(=O)c2ccc(Br)o2)c1 [D12.043] | 92.2
8 | COc1ccc(/C=C2\C(=O)N(c3ccccc3)C3=C2C(c2ccc(Br)cc2)N(c2ccccc2)C3=O)cc1 (stereo not shown) [D12.047] | 198
9 | CCCn1c(N2CCN(CC(=O)Nc3c(C(=O)OCC)[nH]c4ccc(F)cc34)CC2)nc2c1c(=O)[nH]c(=O)n2C [D13.004] | 69.8
10 | CCOC(=O)CC(N)c1ccc(OC)cc1 (stereo not shown) [D13.006] | 83.3
11 | CN(C)c1ccc(C2C3C(=O)N(c4ccccc4)C(=O)C3ON2c2ccc(Cl)cc2)cc1 (stereo not shown) [D13.007] | 344
12 | CCC(O)(CC)C(=O)NNc1ccc(C)cc1C [D14.001] | 1.2
13 | O=C(Nc1cccc(/N=C/c2cc(/N=N\c3ccccc3Cl)ccc2O)c1)c1ccco1 [D14.002] | 2.5
14 | CCC(O)(CC)C(=O)NN(C(=O)CNS(=O)(=O)c1ccc(C)cc1)c1ccccc1 [D14.007] | 456

Same assay, conditions: values without "*" = IC-50; read-out: IC50DPIV

Row | Structure (SMILES) | IC50 [µM]
15 | O=C(Nc1cccc(/N=C/c2cc(I)cc(I)c2O)c1)c1ccco1 [D11.002] | 9.2
16 | Cc1csc(/C(=N\OC(=O)c2ccc(Br)o2)C(N)=O)n1 [D11.003] | 14
17 | C/C(=N/OC(=O)C(C)(C)C)c1cc2ccccc2oc1=O [D11.004] | 14.1
18 | CCCC(=O)O/N=C1/C(=O)N(c2ccccc2)c2ccccc21 [D11.006] | 15.2
19 | CCCC(=O)O/N=C(/C)c1cc2ccccc2oc1=O [D11.007] | 18.9
20 | Cc1[nH]c2ccccc2c1/C=N/OC(=O)C1CC1 [D11.008] | 30
21 | Cc1csc(/C(=N\OC(=O)c2ccco2)C(N)=O)n1 [D11.009] | 32.8
22 | CCc1c(C)[nH]c2c1/C(=N/OC(=O)C(C)C)CCC2 [D11.010] | 43.8
23 | COC(=O)O/N=C(/N)c1nonc1N [D11.011] | 44.3
24 | Cn1c(=O)c2c(nc(NCCCCO)n2Cc2ccccc2Cl)n(C)c1=O [D12.002] | 16.2
25 | CC1CCN(C(=O)/C(=C\c2ccco2)NC(=O)c2ccc(Cl)cc2)CC1 [D12.004] | 18.5
26 | CN(C)c1ccc(C2C=C(Nc3ccccc3)C(=O)N2c2ccccc2)cc1 (stereo not shown) [D12.006] | 20.4
27 | CCCn1c(N2CCN(CC(=O)c3c[nH]c4ccccc34)CC2)nc2c1c(=O)[nH]c(=O)n2C [D12.012] | 30.8
28 | O=C(Nc1c[nH]c(=O)[nH]c1=O)c1ccc2c(c1)C(=O)N(c1ccc(C(=O)c3ccccc3)cc1)C2=O [D12.016] | 38.2
29 | CCOC(=O)c1c(C)oc2c1c1c(c3ccccc32)OCN(C2CCS(=O)(=O)C2)C1 (stereo not shown) [D12.017] | 34.2
30 | Cc1ccc(C(=O)N/C(=C\c2ccco2)C(=O)N2CCOCC2)cc1C [D12.025] | 46.5
31 | CCCCOC(=O)c1cc(-c2ccc(/C=C3/C(=O)N(CC(C)O)C(=O)C(C#N)=C3C)o2)ccc1Cl (stereo not shown) [D12.027] | 49
32 | CC(=O)Oc1ccc2oc(=O)c3c(c2c1)CCCN3C(C)=O [D12.029] | 59.4
33 | CCOC(=O)c1n[nH]c2c1CN(c1ccc([N+](=O)[O-])cc1)C2=O [D12.031] | 54.5
34 | O=C(N/N=C/c1cc(Br)c(O)c(Br)c1O)/C(=C\c1ccc2c(c1)OCO2)NC(=O)c1ccccc1 [D12.032] | 60
35 | COC(=O)C1=CN(N(C(C)=O)C(C)=O)C(=O)CC1 [D12.033] | 60.7
36 | CCCOC(=O)c1cc(-c2ccc(/C=C3\C(=O)NC(=O)C(C#N)=C3C)o2)ccc1Cl [D12.034] | 65.3
37 | Cc1ccc(C(=O)N/C(=C/c2ccco2)C(=O)N(C)C)cc1 [D12.038] | 47.7
38 | Nc1nonc1-n1nnc(C(=O)NN=C2c3ccccc3-c3ccccc32)c1-c1ccccc1 [D13.001] | 10.1
39 | COCC(=O)CC(N)c1ccc(C)cc1 (stereo not shown) [D13.002] | 23.3
40 | CC(N)C(CC(=O)O)c1ccccc1 (stereo not shown) [D13.003] | 38
41 | CCOC(=O)CC(N)c1ccccc1Cl (stereo not shown) [D13.005] | 72.2
42 | CCC(O)(CC)C(=O)NNc1ccccc1C [D14.003] | 5.7
43 | O=C(NNC1=C(Cl)C(=O)C(Cl)(Cl)C1=O)c1ccccc1 [D14.004] | 26.2
44 | CCC(O)(CC)C(=O)NNc1ccc(C)cc1 [D14.005] | 26.7

Each compound was assayed on Ovalbumine-induced Asthma Bronchiale of Mice (assay: Ovalbumine-induced asthma bronchiale of mice, pulmonal function (EF50)). Conditions: 0.1 mg (of each) inhibitor i.p. on days 28-35; FIG. 3A.
Type: in vivo, Balb/c Mice
Description: Therapeutic Effect of the Combined Inhibition of Dipeptidyl Peptidase IV and of Enzymes Having an Analogous Effect as well as of the Alanyl Aminopeptidase and of Enzymes Having an Analogous Effect on the Ovalbumine-induced Asthma Bronchiale of Mice (Animal Model of Human Asthma Bronchiale).
Female Balb/c Mice were sensitized for the antigen ovalbumine capable of inducing asthma bronchiale by an intreperitoneal administration of […] ovalbumine on the days 0, 14 and 21. On day 27/28, the animals received a boostering dose of ovalbumine by inhalation [vD3]. After an intreperitoneal administration of the peptidase inhibitors on the days 28-35, there was effected an intranasal ovalbumine challenge on day 35, as well as a check of the allergic premature reaction via the pulmonal function. There were measured: the average expiratory flux (EF50), the tidal volume, the respiration rate and the minute volume as well as the number of eosinophilic granulocytes in the bronchoalveolar lavage. 8 to 10 animals were used per experimental group. By way of example, in FIG. 3A, there is summarized the effect of the peptidase inhibitors on the reduction of the EF50 value. […] Group E represents animals which were not sensitized by OVA, but which were subjected—beyond that—all procedures to which the animal groups A to D were subjected.

Row | Structure (SMILES) | therapeutic effect on the reduction of the EF50 value
45 | CCCCC[C@H](CC(=O)NO)C(=O)N[C@H](C(=O)N1CCC[C@H]1CO)C(C)C [Actinonine] | showed a therapeutic effect
46 | N[C@@H](CCCCNC(=O)OCc1ccc([N+](=O)[O-])cc1)C(=O)N1CCCC1 [Lys[Z(NO2)] pyrrolidide] | showed a therapeutic effect
